Each structure is given as a SMILES string.

One assay deals with MV4-11. The assay can be described thus: Antiproliferative activity against human MV4-11 cells incubated for 48 hrs by CCK-8 assay. The class given is functional, cell-based. Particulars: MV4-11, 48 h.
Another assay relates to MOLM-13. The assay can be described thus: Antiproliferative activity against human MOLM-13 cells incubated for 48 hrs by CCK-8 assay. The class given is functional, cell-based. The following applies: MOLM-13, 48 h.

In the case of `Nc1c(-c2nc3cc(N4CCN(C(=O)CCC#Cc5cccc6c5C(=O)N(C5CCC(=O)NC5=O)C6=O)CC4)ccc3[nH]2)c(=O)[nH]c2cccc(F)c12` (stereo unspecified), the values for the IC50 in the assay on MV4-11 and with MOLM-13 were 929 nM and more than 1000 nM, respectively.
In the same order, the values of `Nc1c(-c2nc3cc(N4CCN(C(=O)CCCCCCNc5cccc6c5C(=O)N(C5CCC(=O)NC5=O)C6=O)CC4)ccc3[nH]2)c(=O)[nH]c2cccc(F)c12` (stereo unspecified) are 416 nM and 130 nM.
In the same order, the values of `Nc1c(-c2nc3cc(N4CCN(C(=O)CCCC#Cc5cccc6c5C(=O)N(C5CCC(=O)NC5=O)C6=O)CC4)ccc3[nH]2)c(=O)[nH]c2cccc(F)c12` (stereo unspecified) are 424 nM and 93.7 nM.
With `Nc1c(-c2nc3cc(N4CCN(CCCCC(=O)Nc5cccc6c5CN(C5CCC(=O)NC5=O)C6=O)CC4)ccc3[nH]2)c(=O)[nH]c2cccc(F)c12` (stereo unspecified), the results for the IC50 in the assay on MV4-11 and with MOLM-13 were more than 1000 nM and 751 nM, respectively.
For `Nc1c(-c2nc3cc(N4CCN(CCCCCCC(=O)Nc5cccc6c5C(=O)N(C5CCC(=O)NC5=O)C6=O)CC4)ccc3[nH]2)c(=O)[nH]c2cccc(F)c12` (stereo unspecified) the same measures were 418 nM and more than 1000 nM.
In the same order, the values of `Nc1c(-c2nc3cc(N4CCN(CCCCCCC(=O)Nc5cccc6c5CN(C5CCC(=O)NC5=O)C6=O)CC4)ccc3[nH]2)c(=O)[nH]c2cccc(F)c12` (stereo unspecified) are more than 1000 nM and more than 1000 nM.
For `Nc1c(-c2nc3cc(N4CCN(CCC(=O)Nc5cccc6c5C(=O)N(C5CCC(=O)NC5=O)C6=O)CC4)ccc3[nH]2)c(=O)[nH]c2cccc(F)c12` (stereo unspecified) the same measures were more than 1000 nM and more than 1000 nM.
As for `Nc1c(-c2nc3cc(N4CCN(CCCCCCCC(=O)Nc5cccc6c5C(=O)N(C5CCC(=O)NC5=O)C6=O)CC4)ccc3[nH]2)c(=O)[nH]c2cccc(F)c12` (stereo unspecified), the IC50 in the assay with MV4-11 and in the assay on MOLM-13 was more than 1000 nM in each case.

The record behind these values is ChEMBL document CHEMBL4840352 (J Med Chem, 2021).
